Test results reported in US20100292200A1, “Methods for Modulating Apoptosis in Platelets” (The Walter and Eliza Hall Institute of Medical Research, priority 2006, published 2010).
“Also recorded” adds a separate entry of the source.

Columns and labels:
[1] = test system: Bcl-2, Bcl-xL, Bcl-w, Mcl-1, A1; settings: Oltersdorf et al., 2005; van Delft et al., 2006; cited from earlier work
Mcl-1 null MEF cells = test: Assay of Mcl-1 null MEF cells (rescue from ABT-737-induced killing, CellTitre-Blue viability); assay type: cell-based, mouse; settings: Mcl-1^(-/-) MEFs
Protocol: In summary, cells are split on day one in order to have them at a confluency of 60-80% on day two. On day two, the cells are seeded out into assay plates at a density that will ensure they are not confluent by day four of the assay. The assay plates are incubated at room temperature for 20-60 minutes before being transferred to 37° C. so that edge effects are minimized. For the same reason, assay plates are never stacked on top of each other in the incubator. On day three the cells are treated first with either Q-VD or with WEHI library compound. The cells are incubated for a 2 hour period in the presence of the library compounds and are then treated with ABT-737. […] After four hours the level of resorufin is measured.
The protocol for day one was repeated up to the point where the cells were pelleted and the supernatant aspirated off. […] The cells were vortexed and then counted using a haemocytometer. The dilution necessary to achieve a density of 2×10^4 cells ml^−1 (1000 cells per well per 50 μl media) in the required volume was calculated and the dilution performed in 1% FCS FMA. […]
CellTitre-Blue™ was warmed to 37° C. and 10 μl was then added to each well of the assay plates using the Multidrop. The plates were returned to 37° C. for 4 hours before being loaded into the EnVision plate reader. […]

mouse platelets = test: Ex vivo platelet assays, mouse platelets in culture (platelet counts, caspase immunoblotting); assay type: cell-based; settings: ABT-737 1 μM
Protocol: (A) Expression of Bcl-2 family proteins in platelets. […] (C) ABT-737 triggers caspase activation in platelets. […] (F) Absence of Bak protects platelets against ABT-737.
Cell death was induced with ABT-737 (up to 5 μM, Abbott Laboratories (Oltersdorf et al., 2005 (supra)), etoposide (up to 100 μM, Pharmacia) or staurosporine (10 μM, Sigma); 50 μM qVD.OPh (Enzyme Systems) was also added in some experiments. Cell viability was determined by flow cytometry for cells that exclude propidium iodide or manual counting using a hemacytometer.
Other antibodies for immunoblotting were mouse monoclonal anti-Bcl-xL (2H12; BD), anti-Bcl-2 (clone 7; BD), anti-human Bcl-2 (Bcl-2-100), anti-actin (AC40; Sigma), anti-Bax (2D2 and 5B7; Sigma), anti-Mcl-1 (clone 22: BD); rat monoclonal anti-Mcl-1 (14C11; D Huang, unpublished), rabbit polyclonal anti-Bak (B5897: Sigma), anti-Mcl-1 (Rockland), anti-caspase-3 (585; gift of Y. Lazebnik), anti-cleaved p17 fragment of caspase-3 (AB3623; Chemicon), anti-gelsolin (gift of D Kwiatkowski) (Kothakota et al., Science, 278:294-298, 1997); hamster monoclonal anti-mouse Bcl-2 (3F11; BD). Secondary antibodies included HRP-conjugated anti-rat or anti-hamster IgG (SouthernBiotech), anti-mouse or anti-rabbit IgG (Chemicon), and anti-mouse IgG Fcγ chain specific antibody (Jackson ImmunoResearch). The proteins were detected using Enhanced ChemiLuminescence (ECL; GE Healthcare).
Platelets were counted manually in triplicate using a hemacytometer.

serum TPO levels = test: Thrombopoietin analysis (serum TPO ELISA) in ABT-737 treated mice; assay type: in vivo, mouse; settings: after ABT-737
Protocol: Animals were bled 2-24 h afterwards and platelet counts determined. […] (B) Platelet recovery after a single dose of ABT-737. Platelet counts (blue symbols; left axis) were determined 2-96 h after a single dose of ABT-737 (red arrow). […] Orange symbols represent serum TPO levels (right axis). (C) Cyclical acute thrombocytopaenia triggered by ABT-737. Platelet counts were determined before and 8 h after a single dose of ABT-737 (red arrows) given at weekly intervals. […] During recovery, baseline counts drifted upwards. (D) ABT-737 acts selectively on aged platelets. […] (E) Synchronizing platelets. […] During recovery, the newly synthesized younger platelets are larger as indicated by the increased mean platelet volume (blue symbols; right axis). (F) Young platelets are resistant to ABT-737. Wild type C57BL/6 mice were treated with APS, and then injected with ABT-737 (red arrows) either 2 or 7 days afterwards. Absolute platelet counts and the % of reticulated platelets were measured. […]
Blood was collected from the retroorbital sinus using a non-heparinized capillary tube into an eppendorf tube and incubated at room temperature for 2 h. […] Thrombopoietin levels were measured by enzyme-linked immunosorbent assay (ELISA) using the Quantikine Mouse TPO Immunoassay kit (R&D Systems) according to the manufacturer's instructions.

Question: For `CN(C)CC[C@H](CSc1ccccc1)Nc1ccc(S(=O)(=O)NC(=O)c2ccc(N3CCN(Cc4ccccc4-c4ccc(Cl)cc4)CC3)cc2)cc1[N+](=O)[O-]` [ABT-737], which “selectivity among pro-survival Bcl-2 family proteins” value [1] is on record?
Answer: selectively targets Bcl-2, Bcl-xL and Bcl-w but not the other pro-survival proteins Mcl-1 or A1

Question: And the “induction of apoptosis in Mcl-1^(-/-) cells” value (Mcl-1 null MEF cells)?
Answer: Apoptosis is induced

Question: What about the “loss of wild type platelets in culture” value (mouse platelets; counted after 1 h) of the same compound?
Answer: Bak-mediated caspase-dependent loss of platelets

Question: What about the “caspase-3 activation and gelsolin cleavage in cultured platelets” value (mouse platelets; immunoblotting) of the same compound?
Answer: triggered cleavage and full activation of caspase-3 as well as cleavage of gelsolin; also recorded: induced complete caspase-3 activation and gelsolin cleavage

Question: What about the “action of ABT-737 on viability of Bak^-/- platelets in culture” value (mouse platelets; Bak^-/- vs wild type platelets, 1 h) of the same compound?
Answer: markedly blunted

Question: And the “TPO levels in ABT-737 treated mice” value (serum TPO levels)?
Answer: sustained production; also recorded: normal, or probably even elevated
